Data: patent US6407112B1, “Optically active tetrahydrobenzindole derivative” (Meiji Seika Kaisha, Ltd., priority 1998, dated 2002)
Where two headings read alike, the source gives them in different places.

What was measured:
[1] = biological target: T1, cloned human 5-HT7 receptor (Homo sapiens, UniProt P34969); assay: 5-HT7 receptor-binding assay ([3H]-5CT); conditions: for Selectivity (ratio of Ki (5-HT2) with Ki (5-HT7)): Ki (5-HT2, rat cortex) / Ki (5-HT7, cloned human)
T1 construct: expressed in transfected cells
Protocol: 5-HT7 Receptor-binding Assay
Membranes from culture cells expressing cloned human 5-HT7 receptor were harvested and homogenized in 50 mM Tris-HCl assay buffer (pH 7.4) containing 10 mM MgCl2 and 0.5 mM EDTA with a potter-type homogenizer, and the suspension was centrifuged at 4° C., 39,000×g for 20 minutes. The resulting pellet was resuspended in the assay buffer at a proportion of 1 ml per an amount of a piece of culture petri dish having a diameter of 10 cm, and homogenized again.
The incubation was terminated by rapid filtration through GB/B filter, washed with 6 ml of ice-cold 50 mM Tris-HCl buffer (pH 7.4). The bound radioactivity was determined by liquid scintillation counter. While, non-specific binding was determined in the presence of 10 μM metergoline. The specific binding was calculated from the bound radioactivity after subtraction of non-specific binding.

[2] = biological target: T2, 5-HT2 receptor (rat cerebral cortex P2 fraction) (Rattus norvegicus, UniProt P14842); assay: 5-HT2 receptor-binding assay ([3H]ketanserin)
T2 construct: Rat cerebral cortex was homogenized in 10 volumes of 0.32 M sucrose solution; from tissue; host or cells: rat cerebral cortex, P2 membrane fraction
Protocol: 5-HT2 Receptor-binding Assay
Rat cerebral cortex was homogenized in 10 volumes of 0.32 M sucrose solution. The supernatant obtained by centrifuging at 900×g for 10 minutes was further centrifuged at 11,500×g for 20 minutes. The pellet was resuspended in 50 mM Tris-HCl buffer (pH 7.4) and then centrifuged at 39,900×g for 20 minutes. The final pellet was used a P2 fraction.
P2 fraction was incubated in 50 mM tris-HCl buffer (pH 7.4) containing 1 nM [^3H]ketanserin and the compound of the present invention at 37° C. for 15 minutes and terminated by rapid filtration through GF/B filters. The bound radioactivity was determined by liquid scintillation counter. While, non-specific binding was determined in the presence of 10 μM ketanserin. Thus, the specific binding was calculated from the bound radioactivity after the subtraction of non-specific binding.

[3] = membranes of cultured cells expressing cloned human 5-HT7 receptor, 1 nM [3H]-5CT, 37° C., 30 minutes, Ki calculated from IC50, read-out: Receptor Binding Affinity Ki Value (5-HT7)
[4] = rat cerebral cortex P2 fraction, 1 nM [3H]ketanserin, 37° C., 15 minutes, Ki calculated from IC50, read-out: Receptor Binding Affinity Ki Value (5-HT2)

T2 sequence (P14842 whole entry): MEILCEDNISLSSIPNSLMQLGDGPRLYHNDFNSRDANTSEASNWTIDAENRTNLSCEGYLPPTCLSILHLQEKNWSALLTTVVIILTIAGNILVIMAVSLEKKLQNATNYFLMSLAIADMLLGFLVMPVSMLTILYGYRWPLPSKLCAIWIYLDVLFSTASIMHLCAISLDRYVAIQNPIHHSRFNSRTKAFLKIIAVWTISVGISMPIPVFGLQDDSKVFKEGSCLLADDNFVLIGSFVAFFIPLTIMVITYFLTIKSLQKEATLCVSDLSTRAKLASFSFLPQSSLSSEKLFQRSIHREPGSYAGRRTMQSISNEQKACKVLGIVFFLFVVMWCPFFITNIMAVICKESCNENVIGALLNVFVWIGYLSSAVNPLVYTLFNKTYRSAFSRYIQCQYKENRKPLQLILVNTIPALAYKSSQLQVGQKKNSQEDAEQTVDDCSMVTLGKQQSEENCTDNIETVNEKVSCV
T1 sequence (P34969 whole entry): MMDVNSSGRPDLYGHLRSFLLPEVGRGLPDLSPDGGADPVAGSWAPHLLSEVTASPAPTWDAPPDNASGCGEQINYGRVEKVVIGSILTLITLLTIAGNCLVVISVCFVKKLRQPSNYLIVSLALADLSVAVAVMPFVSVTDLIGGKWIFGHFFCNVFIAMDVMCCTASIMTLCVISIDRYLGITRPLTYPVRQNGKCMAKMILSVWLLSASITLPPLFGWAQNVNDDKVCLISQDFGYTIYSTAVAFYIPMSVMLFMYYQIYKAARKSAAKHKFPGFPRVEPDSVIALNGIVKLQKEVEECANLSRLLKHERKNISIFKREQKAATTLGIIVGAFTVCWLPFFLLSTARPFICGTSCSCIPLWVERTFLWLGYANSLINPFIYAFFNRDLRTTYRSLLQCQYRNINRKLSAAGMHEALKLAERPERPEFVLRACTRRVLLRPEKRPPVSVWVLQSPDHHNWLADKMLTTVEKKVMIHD

Which results are given for `O=C1Nc2cccc3c2[C@@]1(CCCCN1CCc2ccccc2C1)CCC3` [Synthesis Example 18, (S)-2a-(4-(1,2,3,4-tetrahydroisoquinolin-2-yl)-butyl)-2a,3,4,5-tetrahydro-1H-benz[cd]indol-2-one]?
Selectivity (ratio of Ki (5-HT2) with Ki (5-HT7)) [1]: >125; Ki [1, 3]: 7.7 nM; Ki [2, 4]: > 1000 nM

What does the source list for `CNC(=O)Cn1c2c(c3ccccc31)CCN(CCCC[C@@]13CCCc4cccc(c41)NC3=O)C2` [Synthesis Example 22, (S)-2a-(4-(9-methylcarbamoylmethyl-2,3,4,9-tetrahydro-1H-pyrido[3,4-b]indol-2-yl)butyl)-2a,3,4,5-tetrahydro-1H-benz[cd]indol-2-one]?
Selectivity (ratio of Ki (5-HT2) with Ki (5-HT7)) [1]: >667; Ki [1, 3]: 1.5 nM; Ki [2, 4]: > 1000 nM

What does the source list for `CNC(=O)Cn1c2c(c3ccccc31)CCN(CCCCC13CCCc4cccc(c41)NC3=O)C2` (racemic) [Racemic Mixture of Synthesis Example 22, reference compound]?
Selectivity (ratio of Ki (5-HT2) with Ki (5-HT7)) [1]: >278; Ki [1, 3]: 3.6 nM; Ki [2, 4]: > 1000 nM

How did the “Selectivity (ratio of Ki (5-HT2) with Ki (5-HT7))” value [1] turn out when `COc1ccccc1N1CCN(CCCCC23CCCc4cccc(c42)NC3=O)CC1` (racemic) [Racemic Mixture of Synthesis Example 14, reference compound] was run?
The value was 7.

And the Ki [2, 4]?
The Ki was 60 nM.

With `COc1ccccc1N1CCN(CCCC[C@@]23CCCc4cccc(c42)NC3=O)CC1` [Synthesis Example 14, (S)-2a-(4-(4-(2-methoxyphenyl)piperazinyl)butyl)-2a,3,4,5-tetrahydro-1H-benz[cd]indol-2-one] as the compound, how does the “Selectivity (ratio of Ki (5-HT2) with Ki (5-HT7))” value [1] read?
The value was 49.

What about the Ki [1, 3] of the same compound?
Its Ki is 1.7 nM.

What about the Ki [2, 4] of the same compound?
Its Ki is 84 nM.

What does the source list for `O=C1Nc2cccc3c2[C@@]1(CCCCN1CC=C(c2ccccc2)CC1)CCC3` [Synthesis Example 15, (S)-2a-(4-(4-phenyl-1,2,3,6-tetrahydropyridin)-1-ylbutyl)-2a,3,4,5-tetrahydro-1H-benz[cd]indol-2-one]?
Ki [1]: 1.3 nM; Selectivity (ratio of Ki (5-HT2) with Ki (5-HT7)) [1]: 32; Ki [2]: 42 nM

How did the “Selectivity (ratio of Ki (5-HT2) with Ki (5-HT7))” value [1] turn out when `O=C1Nc2cccc3c2C1(CCCCN1CCc2ccccc2C1)CCC3` (racemic) [Racemic Mixture of Synthesis Example 18, reference compound] was run?
Its value is 79.

And the Ki [1, 3]?
The Ki was 8 nM.

And the Ki [2, 4]?
Its Ki is 628 nM.

`O=C1Nc2cccc3c2C1(CCCCN1CC=C(c2ccccc2)CC1)CCC3` (racemic) [Racemic Mixture of Synthesis Example 15, reference compound] was tested. Which Ki [1] did it give?
The Ki was 9 nM.

And the “Selectivity (ratio of Ki (5-HT2) with Ki (5-HT7))” value [1]?
Its value is 10.

What about the Ki [2] of the same compound?
Its Ki is 92 nM.

What does the source list for `CN(C)C(=O)n1c2c(c3ccccc31)CCN(CCCC[C@@]13CCCc4cccc(c41)NC3=O)C2` [Synthesis Example 17, (S)-2a-[4-(9-dimethylcarbamoyl-2,3,4,9-tetrahydro-1H-pyrido[3,4-b]indol-2-yl)-butyl]-2a,3,4,5-tetrahydro-1H-benz[cd]indol-2-one]?
Selectivity (ratio of Ki (5-HT2) with Ki (5-HT7)) [1]: >250; Ki [1, 3]: 4 nM; Ki [2, 4]: > 1000 nM

For `CN(C)C(=O)n1c2c(c3ccccc31)CCN(CCCCC13CCCc4cccc(c41)NC3=O)C2` (racemic) [Racemic Mixture of Synthesis Example 17, reference compound], which “Selectivity (ratio of Ki (5-HT2) with Ki (5-HT7))” value [1] is on record?
Its value is 121.

What about the Ki [1, 3] of the same compound?
The Ki was 8 nM.

And the Ki [2, 4]?
Its Ki is 970 nM.
